Reference: paper PMC8835363, “Arachidin-1, a Prenylated Stilbenoid from Peanut, Induces Apoptosis in Triple-Negative Breast Cancer Cells” (International Journal of Molecular Sciences, 2022)

Legend:
[1] = system: peripheral blood mononuclear cells (PBMCs); parameters: method as in PMID 21067217; conditions: cited from earlier work
MDA-MB-231 cells [2] = assay: RealTime-Glo MT cell viability (cytotoxicity) assay; format: cell-based, human; conditions: for IC50: Homo sapiens
Protocol: (§1) The cytotoxicity of RES, A-1, and A-3 was measured using the RealTime-Glo^TM MT Cell Viability Assay (Promega, Madison, WI, USA). The cells (10,000 cells/well) were seeded into 96-well plates. […] Cells with 0.1% DMSO (ATCC; Manassas, VA, USA) were included as a control. Luminescence was measured every 12 h for 72 total hours in a Cytation^TM 5 (BioTek, Winooski, VT, USA) plate reader. All experiments were performed in triplicates.

MDA-MB-436 cells [3] = assay: as above; format: cell-based, human; conditions: for IC50: Homo sapiens
Protocol: as §1

MCF-10A cells [4] = assay: as above; format: cell-based, human; conditions: 1 µM, 24, 48, 72 h
Protocol: The cytotoxicity of RES, A-1, and A-3 was measured using the RealTime-Glo^TM MT Cell Viability Assay (Promega, Madison, WI, USA). The cells (10,000 cells/well) were seeded into 96-well plates. After 24 h, they were treated with various 10-fold dilutions of RES, A-1, and A-3 with concentrations ranging from 0.1 µM to 1000 µM. Cells with 0.1% DMSO (ATCC; Manassas, VA, USA) were included as a control. Luminescence was measured every 12 h for 72 total hours in a Cytation^TM 5 (BioTek, Winooski, VT, USA) plate reader. All experiments were performed in triplicates.

MDA-MB-231 cells [5] = assay: Cell cycle analysis with PI (flow cytometry); format: cell-based, human
Protocol: (§2) Cells were seeded onto 6-well plates and treated with A-1 (0.1 µM and 1 µM) for 24, 48, and 72 h. Cells incubated with 0.01% DMSO (ATCC; Manassas, VA, USA) were used as a control. Then, MDA-MB-231 and MCF-10A cells were collected by trypsinization; MDA-MB-436 cells were collected by scraping. Treated cells were fixed with ice-cold 70% ethanol while vortexing and incubated for 1 h in 4 °C. Then, cells were washed with cold 1X DPBS, treated with 1 mg/mL of ribonuclease A, and incubated for 30 min at 37 °C. The cells were then stained with 10 µg/mL of propidium iodide (PI), incubated for 30 min at 37 °C, and analyzed by flow cytometry using BD FACS Aria Sorter (BD Biosciences, Franklin Lakes, NJ, USA). Data were analyzed with Modfit LT 5.0 software (Verity Software House; Topsham, ME, USA). All experiments were performed in triplicates.

MDA-MB-436 cells [6] = assay: Cell cycle analysis with PI (flow cytometry); format: cell-based, human
Protocol: as §2

MCF-10A cells [7] = assay: Cell cycle analysis with PI (flow cytometry); format: cell-based, human; conditions: 0.1 and 1 µM, 24, 48, 72 h
Protocol: as §2

In the case of `CC(C)/C=C/c1c(O)cc(/C=C/c2ccc(O)c(O)c2)cc1O` [A-1, arachidin-1], the “cytotoxic effects on PBMCs” value [1] is given as “no cytotoxic effects”, the IC50 (MDA-MB-231 cells [2]; MDA-MB-231, 24 h, MDA-MB-231, 24 h, in Figure 2 panels) is given as 1840 nM and the IC50 (MDA-MB-231 cells [2]; MDA-MB-231, 24 h, MDA-MB-231, 24 h of treatment) is given as 2680 nM. For the same compound, the IC50 (MDA-MB-231 cells [2]; MDA-MB-231, 48 h, MDA-MB-231, 48 h, in Figure 2 panels) was 1420 nM, the IC50 (MDA-MB-231 cells [2]; MDA-MB-231, 48 h, MDA-MB-231, 48 h of treatment) was 7820 nM and the IC50 (MDA-MB-231 cells [2]; MDA-MB-231, 72 h, MDA-MB-231, 72 h, in Figure 2 panels) was 2510 nM. The IC50 (MDA-MB-231 cells [2]; MDA-MB-231, 72 h, MDA-MB-231, 72 h of treatment) was 2510 nM, the IC50 (MDA-MB-231 cells [2]; MDA-MB-231, MDA-MB-231, all treatment time points) was ~2000 nM and the “antiproliferative effect (cell viability vs control)” value (MDA-MB-231 cells [2]; MDA-MB-231, 1 µM, 24, 48, 72 h) was “cell proliferation reductions”. The “growth inhibition at low concentrations” value (MDA-MB-231 cells [2]; MDA-MB-231, 0.01-10 µM, 72 h) was “higher inhibitory growth effects at lower micromolar concentrations when compared to RES”, the “fold lower IC50 of A-1 than RES” value (MDA-MB-231 cells [2]; MDA-MB-231, 24 h) was “six-fold” and the IC50 (MDA-MB-436 cells [3]; MDA-MB-436, 24 h, MDA-MB-436, 24 h) was 12000 nM. For the same compound, the IC50 (MDA-MB-436 cells [3]; MDA-MB-436, 24 h, MDA-MB-436, 24 h, in Figure 2 panels) was 1620 nM, the IC50 (MDA-MB-436 cells [3]; MDA-MB-436, 48 h, MDA-MB-436, 48 h) was 6200 nM and the IC50 (MDA-MB-436 cells [3]; MDA-MB-436, 48 h, MDA-MB-436, 48 h, in Figure 2 panels) was 2740 nM. The IC50 (MDA-MB-436 cells [3]; MDA-MB-436, 72 h, MDA-MB-436, 72 h) was 2090 nM, the IC50 (MDA-MB-436 cells [3]; MDA-MB-436, 72 h, MDA-MB-436, 72 h, in Figure 2 panels) was 2090 nM and the IC50 (MDA-MB-436 cells [3]; MDA-MB-436, MDA-MB-436, all treatment time points) was ~2000 nM. For the same compound, the “antiproliferative effect (cell viability vs control)” value (MDA-MB-436 cells [3]; MDA-MB-436, 1 µM, 24, 48, 72 h) was “cell proliferation reductions”, the “growth inhibition at low concentrations” value (MDA-MB-436 cells [3]; MDA-MB-436, 0.01-10 µM, 72 h) was “higher inhibitory growth effects at lower micromolar concentrations when compared to RES” and the “fold lower IC50 of A-1 than A-3” value (MDA-MB-436 cells [3]; MDA-MB-436, 24 h) was “nine-fold”. For the same compound, the “fold lower IC50 of A-1 than RES” value (MDA-MB-436 cells [3]; MDA-MB-436, 24 h) was “eight-fold”, the “cytotoxicity in non-cancerous epithelial cells” value (MCF-10A cells [4]) was “did not show any statistically significant cytotoxicity” and the “percentage of cells in G2-M phase” value (MDA-MB-231 cells [5]; 0.1 µM, 72 h) was 27.73 ± 4.33%. The “percentage of cells in G2-M phase” value (MDA-MB-231 cells [5]; 1 µM, 24 h) was ~31.73 ± 4.00%, the “percentage of cells in G2-M phase” value (MDA-MB-231 cells [5]; 1 µM, 48 h) was ~25.13 ± 0.89% and the “percentage of cells in G2-M phase” value (MDA-MB-231 cells [5]; 1 µM, 72 h) was 31.28 ± 3.45%. The cell cycle effect (MDA-MB-231 cells [5]; 0.1 and 1 µM) was “cell arrest in the G2-M phase”, the “percentage of cells in G2-M phase” value (MDA-MB-436 cells [6]; 0.1 µM, 48 h) was 25.82 ± 2.73% and the “percentage of cells in G2-M phase” value (MDA-MB-436 cells [6]; 0.1 µM, 72 h) was 38.89 ± 0.08%. The “percentage of cells in G2-M phase” value (MDA-MB-436 cells [6]; 1 µM, 24 h) was 23.97 ± 0.57%, the “percentage of cells in G2-M phase” value (MDA-MB-436 cells [6]; 1 µM, 48 h) was 31.07 ± 0.29% and the “percentage of cells in G2-M phase” value (MDA-MB-436 cells [6]; 1 µM, 72 h) was 36.88 ± 1.42%. For the same compound, the cell cycle effect (MDA-MB-436 cells [6]; 0.1 and 1 µM) was “increased the percentage of cells in the G2-M phase” and the “change in cell cycle phase distribution” value (MCF-10A cells [7]) was “no significant changes in the percentage of cells at different phases”.
